Assay [1] concerns the target T1, Histamine H3 receptor (Cavia porcellus, UniProt Q9JI35). Description: Histamine H3 functional assay, guinea pig ileum (ileal longitudinal muscle, myenteric plexus). Details: species or system tissue. As to conditions: antagonist affinity from rightward shift of R-(α)-methylhistamine E/[A] curves (Schild), typical variance ±0.15 log units; for Kb: read-out: pKb (Guinea pig ileum) (converted). The procedure, abridged:
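Longitudinal muscle–myenteric plexus strips from male Dunkin-Hartley guinea pigs (250-300 g), Krebs-Henseleit buffer at 37±1° C, field-stimulated at 0.1 Hz, 0.5 msec, supramaximal voltage; isometric recording. Cumulative R-(α)-methylhistamine E/[A] curves as % inhibition of twitch height; antagonist affinity by Schild analysis of rightward shift.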

In assay [2] the target is T1, Histamine H3 receptor. Description: Histamine H3 radioligand binding assay, guinea pig cortex ([3H]-R-α-methylhistamine). The settings on record: guinea pig cortex membranes, competition with 1 nM [3H]-R-α-methylhistamine; for Ki: read-out: pKi (Guinea pig cortex) (converted). Summed up: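 Male Dunkin Hartley guinea pig cortical membranes incubated 165 min at 21±3 °C in 20 mM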

Results on 15 compounds are retold here after patent publication US6878736B1, “Histamine H3 receptor ligands” (James Black Foundation Limited, priority 1998, dated 2005).

Counter-ions that a name gives are not always drawn.

T1 sequence (Q9JI35 whole entry): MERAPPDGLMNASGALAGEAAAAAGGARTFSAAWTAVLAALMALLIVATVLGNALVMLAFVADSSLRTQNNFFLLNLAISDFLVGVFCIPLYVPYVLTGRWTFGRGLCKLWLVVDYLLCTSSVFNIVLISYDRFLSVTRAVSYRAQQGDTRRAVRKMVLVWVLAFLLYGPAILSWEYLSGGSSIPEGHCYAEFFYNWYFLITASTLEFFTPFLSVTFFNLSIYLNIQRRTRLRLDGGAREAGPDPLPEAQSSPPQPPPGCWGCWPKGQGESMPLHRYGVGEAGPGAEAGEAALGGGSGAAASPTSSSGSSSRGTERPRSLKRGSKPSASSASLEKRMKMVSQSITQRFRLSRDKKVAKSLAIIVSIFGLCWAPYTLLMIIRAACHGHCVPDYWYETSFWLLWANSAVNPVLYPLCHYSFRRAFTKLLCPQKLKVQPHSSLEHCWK

As for `N=C(NCCCCCN1CCCC1)NCC1CCCCO1` (stereo not drawn) [Example 58, N-(5-Pyrrolidin-1-yl-pentyl)-N′-(tetrahydro-pyran-2-yl-methyl)-guanidine bis-hydrochloride], the Kb in assay [1] is 0.2 µM. In addition, in assay [2], the Ki was 0.00316 µM.

As for `O=S(=O)(NCCCCN1CCCC1)NCc1ccc(Cl)cc1` [Example 139, N-(4-Chlorobenzyl)-N′-(4-pyrrolidin-1-yl-butyl)-sulfamide], in assay [1], the Kb is 0.501 µM. The Ki in assay [2] is 0.2 µM.

Take `N=C(NCCCN1CCCC1)NCc1ccc(Br)cc1` [Example 9, N-(4-Bromobenzyl)-N′-(3-pyrrolidin-1-yl-propyl)-guanidine bis-hydrochloride]: in assay [1], the Kb was 0.316 µM. Besides, the Ki in assay [2] was 0.00501 µM.

Consider `N=C(NCCCN1CCCC1)NCCC1CCCCC1` [Example 42, N-(2-Cyclohexyl-ethyl)-N′-(3-pyrrolidin-1-yl-propyl)-guanidine bis-hydrochloride], for which the Kb in assay [1] is 0.398 µM. Further, the Ki in assay [2] was 0.0251 µM.

`N=C(N)N(CCCCCN1CCCC1)Cc1ccc(Cl)cc1` [Example 69, N-(4-Chlorobenzyl)-N-(5-pyrrolidin-1-yl-pentyl)-guanidine bis-hydrochloride]: in assay [1], the Kb was 0.0126 µM. Also, the Ki in assay [2] was 0.001 µM.

On to `Cl.Cl.N=C(NCCCCCN1CCCC1)NCC1CCCCCC1` [Example 46, N-Cycloheptyl-methyl-N′(5-pyrrolidin-1-yl-pentyl)-guanidine bis-hydrochloride], for which the “pKb (Guinea pig ileum)” value in assay [1] is given as 7.7. For the same compound, the “pKi (Guinea pig cortex)” value in assay [2] amounted to 8.5.

On to `N=C(NCCCCN1CCCC1)NCCCC12CC3CC(CC(C3)C1)C2` [Example 36, N-(3-Adamantan-1-yl-propyl)-N′-(4-pyrrolidin-1-yl-butyl)-guanidine bis-hydrochloride], for which, in assay [1], the Kb was 0.0631 µM. For the same compound, the Ki in assay [2] was 0.0501 µM.

Regarding `CCC(C)CNC(=N)NCCCCCN1CCCC1` (stereo not drawn) [Example 67, N-(2-Methyl-butyl)-N′-(5-pyrrolidin-1-yl-pentyl)-guanidine bis-hydrochloride], the Kb in assay [1] was 0.0501 µM. The Ki in assay [2] was 0.00251 µM.

In the case of `CN1CCC[C@H]1CCCN(C)S(=O)(=O)NCc1ccc(Cl)cc1` [Example 122, N-(4-Chlorobenzyl)-N′-methyl-N′-(3-(1-methyl-pyrrolidin-2S-yl)propyl)-sulfamide], the Kb in assay [1] was 0.316 µM. Also, in assay [2], the Ki is 0.126 µM.

For “N-Adamantan-1-yl-methyl-N′-(3-pyrrolidin-1-yl-propyl)-guanidine bis-hydrochloride [Example 28]”, in assay [1], the “pKb (Guinea pig ileum)” value turned out to be 6.7. The “pKi (Guinea pig cortex)” value in assay [2] worked out at 7.5.

In the case of `Cc1ccccc1CN(CCCCCCN1CCCC1)C(=N)N` [Example 76, N-(2-Methylbenzyl)-N-(6-pyrrolidin-1-yl-hexyl)-guanidine bis-hydrochloride], the Kb in assay [1] is 0.00794 µM. In addition, the Ki in assay [2] was 0.00158 µM.

Turning to `N=C(NCCCN1CCCC1)NCCc1ccc(Br)cc1` [Example 26, N-(2-(4-Bromophenyl)ethyl)-N′-(3-pyrrolidin-1-yl-propyl)-guanidine bis-hydrochloride], the Kb in assay [1] is 0.158 µM. In assay [2], the Ki was 0.0398 µM.

Turning to `CC(C)CN1CCC[C@H]1CCCNS(=O)(=O)NCc1ccc(Cl)cc1` [Example 119], in assay [1], the Kb was 2 µM. Besides, the Ki in assay [2] is 0.0158 µM.

Consider `N=C(NCCCN1CCCC1)NCc1ccc(Cl)cc1` [Example 2, N-(4-Chlorobenzyl)-N′-(3-pyrrolidin-1-yl-propyl)-guanidine bis-hydrochloride], for which the Kb in assay [1] is 0.398 µM. Besides, the Ki in assay [2] was 0.0501 µM.

Regarding `N=C(NCCCCCN1CCCC1)NCCC12CC3CC(CC(C3)C1)C2` [Example 37, N-(2-Adamantan-1-yl-ethyl)-N′-(5-pyrrolidin-1-yl-pentyl)-guanidine bis-hydrochloride], the Kb in assay [1] is 0.0251 µM. Besides, in assay [2], the Ki is 0.0126 µM.
